Data from patent publication US20140378408A1, “NUCLEOSIDE 5'-PHOSPHOROTHIOATE ANALOGUES AND USES THEREOF” (BAR-ILAN UNIVERSITY, an Israeli University, priority 2012, published 2014).
Like-named read-outs stand apart in the source and are kept apart here.

Columns and labels:
[1] = biological target: T1, human NTPDase2 (Homo sapiens, UniProt Q9Y5L3); experiment: Hydrolysis by human NTPDase2; type: in vitro ADME; settings: 100 μM, 1 h, activity with 100 μM ATP = 100%
T1 construct: made in house; host or cells: COS-7 cells (transfected; protein extract)
T1 sequence (Q9Y5L3 1-495): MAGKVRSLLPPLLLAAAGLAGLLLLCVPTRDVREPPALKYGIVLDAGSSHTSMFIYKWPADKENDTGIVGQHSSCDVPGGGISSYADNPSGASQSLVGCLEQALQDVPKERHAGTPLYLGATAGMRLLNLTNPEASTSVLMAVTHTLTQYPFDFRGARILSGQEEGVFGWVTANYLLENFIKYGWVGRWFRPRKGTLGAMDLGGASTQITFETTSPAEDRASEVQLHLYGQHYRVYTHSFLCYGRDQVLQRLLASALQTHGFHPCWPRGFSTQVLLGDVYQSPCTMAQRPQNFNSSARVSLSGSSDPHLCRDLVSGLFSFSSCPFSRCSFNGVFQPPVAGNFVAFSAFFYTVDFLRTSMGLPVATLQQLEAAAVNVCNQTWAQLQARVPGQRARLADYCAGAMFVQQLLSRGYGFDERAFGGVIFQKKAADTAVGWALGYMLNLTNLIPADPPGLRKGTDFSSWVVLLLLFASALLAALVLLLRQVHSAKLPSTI

[2] = biological target: T2, human NTPDase3 (Homo sapiens, UniProt O75355); experiment: Hydrolysis by human NTPDase3; type: in vitro ADME; design: made in house; host or cells: COS-7 cells (transfected; protein extract); settings: 100 μM, 1 h, activity with 100 μM ATP = 100%
T2 sequence (O75355 1-529): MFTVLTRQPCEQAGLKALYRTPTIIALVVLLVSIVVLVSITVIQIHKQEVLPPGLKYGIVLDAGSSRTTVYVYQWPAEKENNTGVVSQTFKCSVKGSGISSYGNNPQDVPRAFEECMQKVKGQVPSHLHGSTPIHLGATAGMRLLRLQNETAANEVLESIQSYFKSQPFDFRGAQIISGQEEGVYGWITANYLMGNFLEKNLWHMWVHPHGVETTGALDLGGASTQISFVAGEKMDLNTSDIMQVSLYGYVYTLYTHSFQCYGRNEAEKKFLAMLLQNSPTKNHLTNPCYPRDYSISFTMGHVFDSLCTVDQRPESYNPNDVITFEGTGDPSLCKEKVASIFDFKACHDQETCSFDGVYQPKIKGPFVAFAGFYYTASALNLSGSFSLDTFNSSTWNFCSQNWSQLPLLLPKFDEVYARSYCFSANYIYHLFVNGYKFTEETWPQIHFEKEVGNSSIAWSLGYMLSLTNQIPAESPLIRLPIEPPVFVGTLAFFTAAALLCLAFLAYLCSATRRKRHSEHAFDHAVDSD

[3] = biological target: T3, human NTPDase8 (Homo sapiens, UniProt Q5MY95); experiment: Inhibition of NTPDase8 activity; type: biochemical; settings: Table 5; ATP and analogue 100 μM; 100% activity = ATP alone
T3 construct: made in house; host or cells: COS-7 cells (transfected; protein extract)
T3 sequence (Q5MY95 1-495): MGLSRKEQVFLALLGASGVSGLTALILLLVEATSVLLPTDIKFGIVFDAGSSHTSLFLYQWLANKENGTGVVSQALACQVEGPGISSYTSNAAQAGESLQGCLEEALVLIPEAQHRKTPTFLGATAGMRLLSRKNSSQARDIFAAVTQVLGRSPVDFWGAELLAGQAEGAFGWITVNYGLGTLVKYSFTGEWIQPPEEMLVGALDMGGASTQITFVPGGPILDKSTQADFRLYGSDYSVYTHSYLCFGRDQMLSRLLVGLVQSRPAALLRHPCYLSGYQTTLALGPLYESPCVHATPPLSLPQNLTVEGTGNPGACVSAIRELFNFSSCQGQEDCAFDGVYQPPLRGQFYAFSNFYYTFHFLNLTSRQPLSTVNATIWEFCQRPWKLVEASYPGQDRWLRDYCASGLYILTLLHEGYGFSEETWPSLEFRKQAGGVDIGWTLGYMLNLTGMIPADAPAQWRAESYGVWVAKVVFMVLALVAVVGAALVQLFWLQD

[4] = biological target: T3, human NTPDase8; experiment: Hydrolysis by human NTPDase8; type: in vitro ADME; settings: 100 μM, 1 h, activity with 100 μM ATP = 100%
[5] = biological target: T4, human P2Y11-R (Homo sapiens, UniProt Q96G91); experiment: [Ca^2+]i response of 1321N1 astrocytoma cells expressing P2Y11-R GFP; type: cell-based
T4 construct: expressed in transfected cells; host or cells: 1321N1 astrocytoma cells
T4 sequence (Q96G91 1-374): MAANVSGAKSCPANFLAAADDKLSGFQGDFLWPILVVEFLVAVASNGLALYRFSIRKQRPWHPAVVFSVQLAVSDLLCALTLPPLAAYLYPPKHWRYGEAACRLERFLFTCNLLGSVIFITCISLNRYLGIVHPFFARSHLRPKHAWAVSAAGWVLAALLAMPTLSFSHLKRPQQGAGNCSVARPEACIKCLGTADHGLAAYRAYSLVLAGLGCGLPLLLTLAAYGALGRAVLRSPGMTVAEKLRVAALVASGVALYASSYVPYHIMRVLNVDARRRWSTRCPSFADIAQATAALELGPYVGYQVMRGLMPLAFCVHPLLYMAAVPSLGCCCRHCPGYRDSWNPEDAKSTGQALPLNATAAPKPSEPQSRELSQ

[6] = biological target: T5, human NTPDase1 (Homo sapiens, UniProt P49961); experiment: Hydrolysis by human NTPDase1; type: in vitro ADME; design: made in house; host or cells: COS-7 cells (transfected; protein extract); settings: 100 μM, 1 h, activity with 100 μM ATP = 100%
T5 sequence (P49961 1-510): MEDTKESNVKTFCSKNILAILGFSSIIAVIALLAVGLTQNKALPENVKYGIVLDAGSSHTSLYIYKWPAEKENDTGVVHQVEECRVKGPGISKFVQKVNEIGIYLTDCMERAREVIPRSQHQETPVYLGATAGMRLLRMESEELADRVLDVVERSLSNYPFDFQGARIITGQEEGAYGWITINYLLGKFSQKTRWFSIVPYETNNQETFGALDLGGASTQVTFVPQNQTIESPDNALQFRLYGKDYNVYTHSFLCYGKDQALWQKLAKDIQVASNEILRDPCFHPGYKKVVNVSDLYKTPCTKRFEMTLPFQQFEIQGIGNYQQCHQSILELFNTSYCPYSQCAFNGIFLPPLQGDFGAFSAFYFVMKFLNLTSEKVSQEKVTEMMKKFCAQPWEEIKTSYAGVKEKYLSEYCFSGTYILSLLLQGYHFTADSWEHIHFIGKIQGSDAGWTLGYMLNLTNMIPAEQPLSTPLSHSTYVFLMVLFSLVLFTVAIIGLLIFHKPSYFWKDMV

[7] = biological target: T5, human NTPDase1; experiment: Inhibition of NTPDase1 activity; settings: Table 5; ATP and analogue 100 μM; 100% activity = ATP alone; read as inhibition

Nc1ncnc2c1ncn2[C@@H]1O[C@H](COP(=O)(O)CP(=O)(O)OP(O)(O)=S)[C@@H](O)[C@H]1O [APCPP-γ-S, adenosine 5′-[Pγ-thio]-α,β-methylenetriphosphate]
Hydrolysis by NTPDase2 [1]: 4.7 ± 0.2%
Hydrolysis by NTPDase3 [2]: 4.8 ± 0.2%
effect on human NTPDase8 activity [3]: 0.50 ± 0.02%
Hydrolysis by NTPDase8 [4]: 5.2 ± 0.2%
EC50 [5]: > 10000 nM
times more potent than ATP at the P2Y11 receptor [5]: 6.7 fold
EC50 ([5]; agonist, read-out: EC50 at the P2Y11 receptor): 1000 nM
Hydrolysis by NTPDase1 [6]: 5.3 ± 0.2%
effect on human NTPDase1 activity [7]: 18.7 ± 0.8%
